Legend:
Format in all cases: in vivo
Settings in all cases: 250 g/ha, evaluated after 13 days, five-point scale
[1] = system: Setaria faberi (SETFA); experiment: Post-emergence herbicide glasshouse test
Outline: (§1)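 Glasshouse spray test at 250 g/ha, pre- or post-emergence (1 or 8 days after sowing). Percent injury scored 1–5 after 13 days.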

[2] = system: Amaranthus palmeri (AMAPA); experiment: Post-emergence herbicide glasshouse test
Outline: as §1

[3] = system: Amaranthus retoflexus (AMARE); experiment: Post-emergence herbicide glasshouse test
Outline: as §1

[4] = system: Echinochloa crus-galli (ECHCG); experiment: Post-emergence herbicide glasshouse test
Outline: as §1

[5] = system: Ipomoea hederacea (IPOHE); experiment: Post-emergence herbicide glasshouse test
Outline: as §1

[6] = system: Setaria faberi (SETFA); experiment: Pre-emergence herbicide glasshouse test
Outline: as §1

[7] = system: Amaranthus palmeri (AMAPA); experiment: Pre-emergence herbicide glasshouse test
Outline: as §1

[8] = system: Amaranthus retoflexus (AMARE); experiment: Pre-emergence herbicide glasshouse test
Outline: as §1

[9] = system: Echinochloa crus-galli (ECHCG); experiment: Pre-emergence herbicide glasshouse test
Outline: as §1

[10] = system: Ipomoea hederacea (IPOHE); experiment: Pre-emergence herbicide glasshouse test
Outline: as §1

SMILES	percentage damage caused to the plant, SETFA [1]	percentage damage caused to the plant, AMAPA [2]	percentage damage caused to the plant, AMARE [3]	percentage damage caused to the plant, ECHCG [4]	percentage damage caused to the plant, IPOHE [5]	percentage damage caused to the plant, SETFA [6]	percentage damage caused to the plant, AMAPA [7]	percentage damage caused to the plant, AMARE [8]	percentage damage caused to the plant, ECHCG [9]	percentage damage caused to the plant, IPOHE [10]
FC(F)(F)c1nc(CCC2CCOC2)c2c(Oc3ncc(Cl)cn3)cccc2n1 (centres unmarked) [Compound 1.031]	5 (5=81-100%)	4 (4=61-80%)	5 (5=81-100%)	5 (5=81-100%)	5 (5=81-100%)	5 (5=81-100%)	5 (5=81-100%)	5 (5=81-100%)	5 (5=81-100%)	5 (5=81-100%)
FC(F)(F)c1nc(CCC2CC2)c2c(Oc3ncc(Cl)cn3)cccc2n1 [Compound 1.032]	5 (5=81-100%)	4 (4=61-80%)	5 (5=81-100%)	5 (5=81-100%)	4 (4=61-80%)	5 (5=81-100%)	5 (5=81-100%)	5 (5=81-100%)	5 (5=81-100%)	1 (1=0-20%)
FC(F)(F)c1nc(CCC2COC2)c2c(Oc3ncc(Cl)cn3)cccc2n1 [Compound 1.033]	5 (5=81-100%)	2 (2=21-40%)	4 (4=61-80%)	5 (5=81-100%)	5 (5=81-100%)	5 (5=81-100%)	5 (5=81-100%)	4 (4=61-80%)	5 (5=81-100%)	5 (5=81-100%)
CC(=O)N1CCC(CCc2nc(C(F)(F)F)nc3cccc(Oc4ncc(Cl)cn4)c23)CC1 [Compound 1.034]	5 (5=81-100%)	4 (4=61-80%)	5 (5=81-100%)	4 (4=61-80%)	2 (2=21-40%)	4 (4=61-80%)	3 (3=41-60%)	2 (2=21-40%)	2 (2=21-40%)	1 (1=0-20%)
FC(F)c1cc(-c2nc(C(F)(F)F)nc3cccc(Oc4ncc(Cl)cn4)c23)on1 [Compound 1.035, 5-[5-(5-chloropyrimidin-2-yl)oxy-2-(trifluoromethyl)quinazolin-4-yl]-3-(difluoromethyl)isoxazole]	2 (2=21-40%)	4 (4=61-80%)	4 (4=61-80%)	1 (1=0-20%)	1 (1=0-20%)	3 (3=41-60%)	5 (5=81-100%)	5 (5=81-100%)	2 (2=21-40%)	1 (1=0-20%)
O=C(c1ccncc1)c1nc(C(F)(F)F)nc2cccc(Oc3ncc(Cl)cn3)c12 [Compound 1.036]	1 (1=0-20%)	3 (3=41-60%)	3 (3=41-60%)	1 (1=0-20%)	1 (1=0-20%)	3 (3=41-60%)	4 (4=61-80%)	3 (3=41-60%)	3 (3=41-60%)	1 (1=0-20%)
OCC(O)CCc1nc(C(F)(F)F)nc2cccc(Oc3ncc(Cl)cn3)c12 (centres unmarked) [Compound 1.037, 4-[5-(5-chloropyrimidin-2-yl)oxy-2-(trifluoromethyl)quinazolin-4-yl]butane-1,2-diol]	1 (1=0-20%)	3 (3=41-60%)	3 (3=41-60%)	1 (1=0-20%)	1 (1=0-20%)	1 (1=0-20%)	1 (1=0-20%)	1 (1=0-20%)	1 (1=0-20%)	1 (1=0-20%)
O=CCCc1nc(C(F)(F)F)nc2cccc(Oc3ncc(Cl)cn3)c12 [Compound 1.038, 3-[5-(5-chloropyrimidin-2-yl)oxy-2-(trifluoromethyl)quinazolin-4-yl]propanal]	1 (1=0-20%)	3 (3=41-60%)	4 (4=61-80%)	1 (1=0-20%)	3 (3=41-60%)	1 (1=0-20%)	1 (1=0-20%)	2 (2=21-40%)	1 (1=0-20%)	1 (1=0-20%)
OCCCc1nc(C(F)(F)F)nc2cccc(Oc3ncc(Cl)cn3)c12 [Compound 1.039, 3-[5-(5-chloropyrimidin-2-yl)oxy-2-(trifluoromethyl)quinazolin-4-yl]propan-1-ol]	1 (1=0-20%)	3 (3=41-60%)	4 (4=61-80%)	1 (1=0-20%)	3 (3=41-60%)	2 (2=21-40%)	2 (2=21-40%)	3 (3=41-60%)	2 (2=21-40%)	1 (1=0-20%)
FC(F)(F)c1nc(C2CC2)c2c(Oc3ncc(Cl)cn3)cccc2n1 [Compound 1.041, 5-(5-chloropyrimidin-2-yl)oxy-4-cyclopropyl-2-(trifluoromethyl)quinazoline]	5 (5=81-100%)	5 (5=81-100%)	5 (5=81-100%)	3 (3=41-60%)	2 (2=21-40%)	5 (5=81-100%)	5 (5=81-100%)	2 (2=21-40%)	3 (3=41-60%)	1 (1=0-20%)
FC(F)(F)c1nc(CCC2CCCCC2)c2c(Oc3ncc(Cl)cn3)cccc2n1 [Compound 1.045]	2 (2=21-40%)	4 (4=61-80%)	4 (4=61-80%)	2 (2=21-40%)	3 (3=41-60%)	4 (4=61-80%)	5 (5=81-100%)	3 (3=41-60%)	4 (4=61-80%)	1 (1=0-20%)

Source: patent US20250179051A1, “PYRIMIDINLY-OXY-QUINOLINE BASED HERBICIDAL COMPOUNDS” (SYNGENTA CROP PROTECTION AG, priority 2022, published 2025)
